Data from patent US20230255906A1, “Targeting Serpin B9 in Cancer” (The Brigham and Women`s Hospital, Inc., priority 2020, published 2023).

Each compound was assayed on B16 melanoma cells (assay: Caspase-3 activity assay (EnzChek Caspase-3 Assay Kit), caspase-3 induction in tumor cells). Details: not given.
Format: cell-based, mouse
In short: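 B16 melanoma cells exposed to compounds for 24 h, lysed on ice 30 min, and lysate incubated with Z-DEVD-R110 substrate about 30 min at room temperature. Fluorescence read at ~496/520 nm against untreated-cell and no-enzyme controls; caspase-3 induction serves as surrogate for GrB activity from Sb9 inhibition.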
Further: test concentration or dose not given here.

SMILES | Ratio of caspase-3 activity to Formula (III)
O=C(c1ccc2nc(-c3ccccc3)oc2c1)N1CCC12CCOC2 (centres unmarked) [6-{6-oxa-1-azaspiro[3.4]octane-1-carbonyl}-2-phenyl-1,3-benzoxazole] | 1.434
O=C(c1ccc2nc(-c3ccccc3)oc2c1)N1CCC(O)CC1 [1-(2-phenyl-1,3-benzoxazole-6-carbonyl)piperidin-4-ol] | 1.327
CN(Cc1cccnc1)C(=O)c1ccc2oc(-c3ccc(C(F)(F)F)cc3)nc2c1 [N-methyl-N-(3-pyridinylmethyl)-2-[4-(trifluoromethyl)phenyl]-1,3-benzoxazole-5-carboxamide] | 0.1669
CN(Cc1ccn[nH]1)C(=O)c1ccc2oc(-c3ccc(C(F)(F)F)cc3)nc2c1 [N-methyl-N-(1H-pyrazol-5-ylmethyl)-2-[4-(trifluoromethyl)phenyl]-1,3-benzoxazole-5-carboxamide] | 0.1414
CCN(CC)C(=O)C1CCCN(C(=O)c2ccc3nc(-c4cccc(OC)c4)oc3c2)C1 (centres unmarked) [N,N-diethyl-1-{[2-(3-methoxyphenyl)-1,3-benzoxazol-6-yl]carbonyl}-3-piperidinecarboxamide] | 0.1463
O=C(NCc1ccno1)c1ccc2oc(-c3cccc(F)c3)nc2c1 [2-(3-fluorophenyl)-N-(isoxazol-5-ylmethyl)-1,3-benzoxazole-5-carboxamide] | 0.09526
COc1cccc(-c2nc3ccc(C(=O)NCC(C)(C)CO)cc3o2)c1 [N-(3-hydroxy-2,2-dimethylpropyl)-2-(3-methoxyphenyl)-1,3-benzoxazole-6-carboxamide] | 0.6716
CC(C)N(CCO)C(=O)c1ccc2oc(-c3ccc(C(F)(F)F)cc3)nc2c1 [N-(2-hydroxyethyl)-N-isopropyl-2-[4-(trifluoromethyl)phenyl]-1,3-benzoxazole-5-carboxamide] | 0.1324
CN(CCC(O)c1ccccc1)C(=O)c1ccc2oc(-c3cccc(F)c3)nc2c1 (centres unmarked) [2-(3-fluorophenyl)-N-(3-hydroxy-3-phenylpropyl)-N-methyl-1,3-benzoxazole-5-carboxamide] | 0.1288
CCCOC1CCCN(C(=O)c2ccc3nc(-c4cccc(OC)c4)oc3c2)C1 (centres unmarked) [2-(3-methoxyphenyl)-6-[(3-propoxy-1-piperidinyl)carbonyl]-1,3-benzoxazole] | 0.1495
O=C(c1ccc2oc(-c3cccc(F)c3)nc2c1)N1CCOc2ccccc2C1 [4-{[2-(3-fluorophenyl)-1,3-benzoxazol-5-yl]carbonyl}-2,3,4,5-tetrahydro-1,4-benzoxazepine] | 0.1627

Same assay, conditions: relative to compound of Formula (III)

SMILES | Caspase-3 induction, Normalized to Formula (III) (%)
CCN(C)C(=O)c1ccc2ocnc2c1 [N-ethyl-N-methyl-1,3-benzoxazole-5-carboxamide] | −74.9828%
O=C(Cc1ccc2ocnc2c1)N1CCCC1 [2-(1,3-benzoxazol-5-yl)-1-(pyrrolidin-1-yl)ethan-1-one] | 3.0541%
COCCCNC(=O)c1ccc2nc(C(F)(F)C(F)(F)F)oc2c1 [N-(3-methoxypropyl)-2-(1,1,2,2,2-pentafluoroethyl)-1,3-benzoxazole-6-carboxamide] | −23.2124%
O=C(c1ccc2nc(C3CCCCC3)oc2c1)N1CCCC1 [2-cyclohexyl-6-(pyrrolidine-1-carbonyl)-1,3-benzoxazole] | −29.7019%
O=C(c1ccc2nc(C(F)(F)F)oc2c1)N1CCCC1 [6-(pyrrolidine-1-carbonyl)-2-(trifluoromethyl)-1,3-benzoxazole] | −71.4007%
CCOc1ccc(C(=O)N2CCCC2)cc1O [2-ethoxy-5-(pyrrolidine-1-carbonyl)phenol] | −21.427%
CN(C)c1nc2cccc(C(=O)NC3CCCC3)c2o1 [N-cyclopentyl-2-(dimethylamino)-1,3-benzoxazole-7-carboxamide] | −47.699%
COc1cc(C(=O)NCC2CCOCC2)ccc1OCCC(C)C [3-methoxy-4-(3-methylbutoxy)-N-[(oxan-4-yl)methyl]benzamide] | −31.8318%
COCCCNC(=O)c1ccc2nc(S)oc2c1 [N-(3-methoxypropyl)-2-sulfanyl-1,3-benzoxazole-6-carboxamide] | 15.2459%
CN(C)CCNC(=O)c1cc2c(cc1O)OCO2 [N-[2-(dimethylamino)ethyl]-6-hydroxy-2H-1,3-benzodioxole-5-carboxamide] | 2.3274%
COc1cc(C(=O)NCCN(C)C)ccc1OCCC(C)C [N-[2-(dimethylamino)ethyl]-3-methoxy-4-(3-methylbutoxy)benzamide] | 6.8323%
O=C(NCc1ccccc1)c1cc2c(cc1O)OCO2 [N-benzyl-6-hydroxy-2H-1,3-benzodioxole-5-carboxamide] | −9.366%
O=C(NCc1ccccc1)c1ccc2nc(C(F)(F)C(F)(F)F)oc2c1 [N-benzyl-2-(1,1,2,2,2-pentafluoroethyl)-1,3-benzoxazole-6-carboxamide] | −48.3904%
O=C(c1ccc2nc(C(F)(F)C(F)(F)F)oc2c1)N1CCCC1 [2-(1,1,2,2,2-pentafluoroethyl)-6-(pyrrolidine-1-carbonyl)-1,3-benzoxazole] | −38.2832%
COCCCNC(=O)c1cc(OC)c(OC)cc1Br [2-bromo-4,5-dimethoxy-N-(3-methoxypropyl)benzamide] | −85.9622%
